Consider two compounds from ChEMBL document CHEMBL5550180, “Enhancing anti-cancer capacity: Novel class I/II HDAC inhibitors modulate EMT, cell cycle, and apoptosis pathways” (Bioorg Med Chem, 2024).

The nature of data set [1]: Toxicity in zebrafish embryo at […] measured after 96 hrs post fertilization. Details: species or system Danio rerio. To be noted: in vivo.
The test system of data set [2] is HT-29. Briefly: Inhibition of cell migration in human HT-29 cells at 0.5 uM measured immediately by wound healing assay (reference value: 100%); values are per cent of control.
Data set [3] has as its system A549. Briefly: Induction of cell cycle arrest in human A549 cells assessed as accumulation at G2/M phase at 2.5 to 5 uM incubated for 24 to 48 hrs by PI-staining based flow cytometric analysis. The class given is functional. To be noted: dose 2.5-5 µM, time 24-48 hrs. On the technique in general: A flow cytometer gives signals particle by particle.
Data set [4] concerns the target T1, Histone deacetylase (Homo sapiens) (UniProt Q13547+O15379+Q9UBN7+Q92769+Q9UQL6+Q8WUI4+Q9BY41+Q96DB2+P56524+Q9UKV0+Q969S8). The data set can be described thus: Inhibition of HDAC in human HT-29 cells incubated for 48 hrs by Western blot analysis. The class given is cell-based. To be noted: dose 0.1-10 µM. Background: Immunoblotting shows a protein as a band on a membrane.

A short description of data set [5]: Toxicity in zebrafish embryo assessed as formation of spinal curvature at 1 to 5 uM measured after 96 hrs post fertilization by microscopic analysis. To be noted: in vivo, dose 1-5 µM. The arrangement: species or system Danio rerio.
The test system of data set [6] is HT-29. Briefly: cells. The class given is functional, cell-based. To be noted: Homo sapiens, HT-29, 48 h.
Description: Anticancer activity against human HT-29 cells assessed as inhibition of cell growth measured for 48 hrs by MTT assay
Data set [7] relates to HT-29. Briefly: Inhibition of cell migration in human HT-29 cells assessed as upregulation of E-cadherin level at 1 to 2 uM incubated for 48 hrs by Western blot analysis. The class given is functional, cell-based. To be noted: dose 1-2 µM.
The target in data set [8] is T1, Histone deacetylase (Homo sapiens). Briefly: Inhibition of HDAC in human HT-29 cells assessed as increase in histone acetylation level at 1 to 2 uM incubated for 48 hrs by Western blot analysis. It counts as cell-based. To be noted: dose 1-2 µM.
Data set [9] deals with HT-29. The data set can be described thus: Anticancer activity against human HT-29 cells assessed as suppression of cell viability at 10 uM incubated for 48 hrs by MTT assay. The class given is functional, cell-based.
Data set [10] has as its system HT-29. Briefly: Anticancer activity against human HT-29 cells assessed as viable cells by measuring green fluorescence intensity measured for 48 hrs by Calcein AM staining based fluorescent microscopic analysis. The class given is functional, cell-based. To be noted: dose 1-20 µM.
Data set [11] concerns A549. Briefly: Inhibition of cell migration in human A549 cells at 1.25 uM measured at 24 hrs by wound healing assay (reference value: 68.4%). The class given is functional.
Data set [12] deals with HT-29. Briefly: Induction of cell cycle arrest in human HT-29 cells assessed as accumulation at G2/M phase at 2.5 to 5 uM incubated for 24 to 48 hrs by PI-staining based flow cytometric analysis. The class given is functional. To be noted: dose 2.5-5 µM, time 24-48 hrs.
Data set [13] deals with A549. Briefly: Induction of cell cycle arrest in human A549 cells assessed as effect on p21 level at 2.5 to 5 uM incubated for 48 hrs by Western blot analysis. To be noted: dose 2.5-5 µM. It counts as functional, cell-based.
In data set [14] the test system is A549. The data set can be described thus: Anticancer activity against human A549 cells assessed as suppression of cell viability at 10 uM incubated for 48 hrs by MTT assay. The class given is functional, cell-based.
Data set [15] has as its system A549. The data set can be described thus: Anticancer activity against human A549 cells assessed as viable cells by measuring green fluorescence intensity measured for 48 hrs by Calcein AM staining based fluorescent microscopic analysis. To be noted: dose 1-20 µM. The class given is functional, cell-based.
For data set [16], the system named is A549. Briefly: Induction of apoptosis in human A549 cells assessed as upregulation of p53 expression at 2.5 to 5 uM incubated for 48 hrs by Western blot analysis. It counts as functional, cell-based. To be noted: dose 2.5-5 µM.
Data set [17] has as its system A549. The data set can be described thus: Inhibition of colony formation in human A549 cells at 125 to 250 nM measured for 10 days by crystal violet staining based analysis. The class given is functional, cell-based. To be noted: dose 125-250 nM, time 10.0 day.
Data set [18] can be described thus: Toxicity in zebrafish embryo assessed as survival rate at 0.5 to 2.5 uM measured after 72 hrs post fertilization. The arrangement: species or system Danio rerio. To be noted: in vivo, dose 0.5-2.5 µM.
In data set [19] the test system is A549. The data set can be described thus: Inhibition of cell migration in human A549 cells at 1.25 uM measured at 48 hrs by wound healing assay (reference value: 42.3%); values are per cent of control. To be noted: A549, 48 h.
Data set [20] deals with A549. The data set can be described thus: cells. It counts as functional, cell-based. To be noted: Homo sapiens, A549, 48 h.
Description: Anticancer activity against human A549 cells assessed as inhibition of cell growth measured for 48 hrs by MTT assay
Data set [21] is described as follows: Toxicity in zebrafish embryo assessed as effect on body length at 0.5 to 2.5 uM measured after 96 hrs post fertilization by microscopic analysis. The arrangement: species or system Danio rerio. To be noted: in vivo, dose 0.5-2.5 µM.
Data set [22] deals with T1, Histone deacetylase (Homo sapiens). Briefly: Inhibition of HDAC in human HT-29 cells assessed as increase in acetyl alpha-tubulin level at 1 to 2 uM incubated for 48 hrs by Western blot analysis. The class given is cell-based. To be noted: dose 1-2 µM.
Data set [23] deals with A549. The data set can be described thus: Induction of cell cycle arrest in human A549 cells assessed as effect on cyclin B1 level at 2.5 to 5 uM incubated for 48 hrs by Western blot analysis. The class given is functional, cell-based. To be noted: dose 2.5-5 µM.
Data set [24] concerns A549. The data set can be described thus: Induction of apoptosis in human A549 cells assessed as increase in PARP level at 2.5 to 5 uM incubated for 48 hrs by Western blot analysis. It counts as functional, cell-based. To be noted: dose 2.5-5 µM.
The test system of data set [25] is A549. The data set can be described thus: Inhibition of cell migration in human A549 cells at 1.25 uM measured immediately by wound healing assay (reference value: 100%); values are per cent of control.
For data set [26], the system named is HT-29. The data set can be described thus: Inhibition of cell migration in human HT-29 cells at 0.5 uM measured at 24 hrs by wound healing assay (reference value: 85.7%); values are per cent of control. To be noted: HT-29, 24 h.
Data set [27] deals with HT-29. Briefly: Inhibition of cell migration in human HT-29 cells at 0.5 uM measured at 48 hrs by wound healing assay (reference value: 73.2%); values are per cent of control. To be noted: HT-29, 48 h.
Data set [28] relates to A549. The data set can be described thus: Induction of cell cycle arrest in human A549 cells assessed as accumulation at sub G1 at 2.5 to 5 uM incubated for 24 to 48 hrs by PI-staining based flow cytometric analysis. To be noted: dose 2.5-5 µM, time 24-48 hrs. It counts as functional.
Data set [29] deals with A549. The data set can be described thus: Anticancer activity against human A549 cells cultured as 3D spheroids assessed as suppression of cell growth at 10 uM incubated for 48 hrs by celltiter-glo luminescent assay. The class given is functional, cell-based.
A short description of data set [30]: Toxicity in zebrafish embryo assessed as hatching rate at 0.5 to 2.5 uM measured after 72 hrs post fertilization by microscopic analysis. To be noted: in vivo, dose 0.5-2.5 µM. The arrangement: species or system Danio rerio.
The next data set deals with NCI-H1299. The data set can be described thus: Anticancer activity against human NCI-H1299 cells assessed as reduction in cell viability at 10 to 40 uM incubated for 48 hrs by MTT assay. It counts as functional, cell-based. To be noted: dose 10-40 µM. A general note: Tetrazolium dyes change colour on reduction, which living cells bring about.
Data set [31] has as its system HT-29. The data set can be described thus: Inhibition of cell migration in human HT-29 cells assessed as downregulation of slug level at 1 to 2 uM incubated for 48 hrs by Western blot analysis. It counts as functional, cell-based. To be noted: dose 1-2 µM.
The nature of data set [32]: Toxicity in zebrafish embryo assessed as yolk sac edema at 0.5 to 2.5 uM measured after 96 hrs post fertilization by microscopic analysis. Details: species or system Danio rerio. To be noted: in vivo, dose 0.5-2.5 µM.
Data set [33] relates to HT-29. The data set can be described thus: Inhibition of colony formation in human HT-29 cells at 50 to 100 nM measured for 10 days by crystal violet staining based analysis. To be noted: dose 50-100 nM, time 10.0 day. It counts as functional, cell-based.
Data set [34] relates to A549. The data set can be described thus: Induction of apoptosis in human A549 cells assessed as increase in caspase 3 level at 2.5 to 5 uM incubated for 48 hrs by Western blot analysis. The class given is functional, cell-based. To be noted: dose 2.5-5 µM.
A short description of data set [35]: Toxicity in zebrafish embryo assessed as formation of spinal curvature at 0.5 to 2.5 uM measured after 96 hrs post fertilization by microscopic analysis. The arrangement: species or system Danio rerio. To be noted: in vivo, dose 0.5-2.5 µM.
Data set [36] concerns HT-29. The data set can be described thus: Inhibition of cell migration in human HT-29 cells assessed as downregulation of vimentin level at 1 to 2 uM incubated for 48 hrs by Western blot analysis. It counts as functional, cell-based. To be noted: dose 1-2 µM.
In data set [37] the target is T1, Histone deacetylase (Homo sapiens). Briefly: Inhibition of HDAC in human A549 cells incubated for 48 hrs by Western blot analysis. It counts as cell-based. To be noted: dose 0.1-10 µM.
A short description of data set [38]: Toxicity in zebrafish embryo assessed as formation of scoliosis at 0.5 to 2.5 uM measured after 96 hrs post fertilization by microscopic analysis. Details: species or system Danio rerio. To be noted: in vivo, dose 0.5-2.5 µM.

The source made the active and inactive calls. The rule behind the calls is not given here.

On to `NC(=O)NO` [HYDROXYUREA], for which the Activity result in [1] is “Toxic”.
The term inhibition denotes the percentage by which the read-out fell short of the control. The IC50 is the concentration at which inhibition is half-maximal. A low value points to greater potency. With `COc1ccc(S(=O)(=O)n2cc(Cc3ccc(C(=O)Nc4ccccc4N)cc3)c3ccccc32)cc1`, the figures for the wound area remaining at 0.5 µM in the data set with HT-29 [2], in the data set on HT-29 [26] and in the data set with HT-29 [27] were 100%, 93.8% and 90.1%, respectively. For the same compound, the result in the data set with A549 [3], in the data set with HT-29 [9], in the data set with HT-29 [12], with A549 [13], in the data set on A549 [14] and in the data set with A549 [16] was Active. Moreover, the result with A549 [23], in the data set on A549 [24], in the data set on A549 [28], with A549 [29], in the data set with NCI-H1299 and in the data set with A549 [34] was Active. The inhibition entry (in data set [4]; in the data set with HT-29 [7]; in [8]; with A549 [17]; in data set [22]; in the data set on HT-29 [31]) was “Active” each time. Further, the inhibition entry (with HT-29 [33]; in the data set with HT-29 [36]; in data set [37]) was “Active” throughout. Also, the Activity entry in [5] is “Non-Toxic”; in the data set with HT-29 [10], “Dose-Dependent Effect”; in the data set on A549 [15], “Dose-Dependent Effect”; in data set [21], “Non-Toxic”; in data set [30], 100%; in data set [32], “Non-Toxic”. The Activity result in [35] and in data set [38] was “Non-Toxic” in each case. Besides, the concentration for half-maximal inhibition (IC50) in the data set on HT-29 [6] came to 0.92 µM; in the data set with A549 [20], 2.52 µM. Further, in the data set on A549 [11], the inhibition at 1.25 µM came to 77.4%. The survival at 72 h, up to 2.5 µM in data set [18] is roughly 100%. The results for the wound area remaining at 1.25 µM in the data set on A549 [19] and in the data set on A549 [25] were 53.3% and 100%, respectively.
